Experimental data reported in patent US20080009418A1, “Selective Inhibitors” (Alchemia LTD., priority 2004, published 2008).

Columns and labels:
Human κ-Opioid (KOP) = target: T1, Human κ-Opioid (KOP) (Homo sapiens, UniProt P41145); assay: Radioligand binding, human κ-opioid (KOP) membranes, filtration, [3H]-Diprenorphine; conditions: compound at 10 μM; [3H]-Diprenorphine, filtration
T1 construct: purchased Perkin Elmer Biosignal
Method in brief: (§1)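 Filtration binding on cloned human receptor membranes (1 Unit/well), [125I]-Substance P for NK1 and [3H]-Diprenorphine for KOP, 1 h at room temperature. Filters PEI-presoaked, washed with cold 50 mM Tris-HCl pH 7.4, counted by scintillation; percent inhibition calculated, reference ligand defining non-specific binding.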

Human melanocortin (MC5) = target: T2, Human melanocortin (MC5) (Homo sapiens, UniProt P33032); assay: Radioligand binding, human melanocortin MC5 membranes, FlashPlate, [125I]-NDP-αMSH; conditions: compound at 10 μM; [125I]-NDP-αMSH, FlashPlate
T2 construct: purchased Perkin Elmer Biosignal
T2 sequence (P33032 whole entry): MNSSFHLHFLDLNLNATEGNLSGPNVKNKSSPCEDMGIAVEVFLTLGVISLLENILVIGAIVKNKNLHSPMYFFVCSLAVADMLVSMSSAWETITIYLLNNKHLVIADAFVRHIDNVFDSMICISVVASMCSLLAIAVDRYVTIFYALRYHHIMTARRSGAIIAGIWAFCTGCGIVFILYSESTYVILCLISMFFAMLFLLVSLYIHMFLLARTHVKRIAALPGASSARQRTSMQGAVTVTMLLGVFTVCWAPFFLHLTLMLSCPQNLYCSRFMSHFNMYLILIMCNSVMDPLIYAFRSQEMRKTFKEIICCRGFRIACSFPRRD
Method in brief: (§2)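 Cloned human receptor membranes were coated onto FlashPlate wells and incubated with radioligand and compound (added from a 0.5 mM DMSO daughter plate) for 1 hour at room temperature in the dark. Scintillation counting gave percent inhibition, with DMSO defining total and reference ligand defining non-specific binding.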

[1] = target: T3, Human melanin-concentrating hormone (MCH1) (Homo sapiens, UniProt Q99705); assay: Radioligand binding, human melanin-concentrating hormone MCH1 membranes, FlashPlate, [125I]-S36057; conditions: compound at 10 μM; [125I]-S36057, FlashPlate
T3 construct: purchased Perkin Elmer Biosignal
T3 sequence (Q99705 whole entry): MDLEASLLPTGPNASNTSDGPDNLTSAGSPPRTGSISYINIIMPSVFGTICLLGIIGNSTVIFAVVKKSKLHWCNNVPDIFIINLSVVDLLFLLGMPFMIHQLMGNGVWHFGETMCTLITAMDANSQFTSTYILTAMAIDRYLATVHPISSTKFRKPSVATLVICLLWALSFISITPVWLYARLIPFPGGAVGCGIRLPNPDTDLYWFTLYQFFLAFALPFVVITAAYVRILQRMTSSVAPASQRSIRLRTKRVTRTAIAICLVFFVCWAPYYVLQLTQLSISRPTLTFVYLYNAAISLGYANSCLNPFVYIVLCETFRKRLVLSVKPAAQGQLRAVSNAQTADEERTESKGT
Method in brief: as §2

Human δ-opioid (DOP) = target: T4, Human δ-opioid (DOP) (Homo sapiens, UniProt P41143); assay: Radioligand binding, human δ-opioid (DOP) membranes, FlashPlate, [3H]-Bremazocine; conditions: compound at 10 μM; [3H]-Bremazocine, FlashPlate
T4 construct: purchased Perkin Elmer Biosignal
T4 sequence (P41143 whole entry): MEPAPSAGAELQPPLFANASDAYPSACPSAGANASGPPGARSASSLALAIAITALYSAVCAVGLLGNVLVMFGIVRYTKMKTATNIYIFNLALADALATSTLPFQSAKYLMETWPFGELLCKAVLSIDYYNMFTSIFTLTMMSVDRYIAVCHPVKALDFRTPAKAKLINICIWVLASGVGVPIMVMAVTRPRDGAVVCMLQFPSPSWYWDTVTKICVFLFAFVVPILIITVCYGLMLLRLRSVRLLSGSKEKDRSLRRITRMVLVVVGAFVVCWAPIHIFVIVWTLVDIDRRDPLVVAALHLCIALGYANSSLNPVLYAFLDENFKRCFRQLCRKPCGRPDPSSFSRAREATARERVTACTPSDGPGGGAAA
Method in brief: as §2

Human neurokinin (NK1) = target: T5, Human neurokinin (NK1) (Homo sapiens, UniProt P25103); assay: Radioligand binding, human neurokinin NK1 membranes, filtration, [125I]-Substance P; conditions: compound at 10 μM; [125I]-Substance P, filtration
T5 construct: purchased Perkin Elmer Biosignal
T5 sequence (P25103 whole entry): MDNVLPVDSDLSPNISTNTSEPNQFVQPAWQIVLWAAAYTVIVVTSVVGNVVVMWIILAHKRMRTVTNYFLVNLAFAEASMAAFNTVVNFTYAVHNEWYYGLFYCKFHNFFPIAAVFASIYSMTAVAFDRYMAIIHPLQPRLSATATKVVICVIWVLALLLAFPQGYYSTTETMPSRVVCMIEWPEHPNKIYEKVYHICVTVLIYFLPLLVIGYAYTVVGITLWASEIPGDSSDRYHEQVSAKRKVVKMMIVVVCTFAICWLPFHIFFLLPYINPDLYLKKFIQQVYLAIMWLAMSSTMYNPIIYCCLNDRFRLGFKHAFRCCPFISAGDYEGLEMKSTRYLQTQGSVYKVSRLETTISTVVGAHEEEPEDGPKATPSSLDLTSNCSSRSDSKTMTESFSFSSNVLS
Method in brief: as §1

Human Melanocortin (MC3) = target: T6, Human Melanocortin (MC3) (Homo sapiens, UniProt P41968); assay: Radioligand binding, human melanocortin MC3 membranes, FlashPlate, [125I]-NDP-αMSH; conditions: compound at 10 μM; [125I]-NDP-αMSH, FlashPlate
T6 construct: purchased Perkin Elmer Biosignal
T6 sequence (P41968 whole entry): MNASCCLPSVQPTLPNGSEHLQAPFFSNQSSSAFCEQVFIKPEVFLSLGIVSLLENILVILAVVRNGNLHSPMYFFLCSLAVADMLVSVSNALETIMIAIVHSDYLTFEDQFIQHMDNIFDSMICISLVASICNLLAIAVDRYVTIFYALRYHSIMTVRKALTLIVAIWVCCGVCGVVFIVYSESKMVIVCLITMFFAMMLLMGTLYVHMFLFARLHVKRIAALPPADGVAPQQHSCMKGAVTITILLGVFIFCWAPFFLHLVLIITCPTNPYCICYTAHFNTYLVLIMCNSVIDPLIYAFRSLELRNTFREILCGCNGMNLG
Method in brief: as §2

Human μ-opioid (MOP) = target: T7, Human μ-opioid (MOP) (Homo sapiens, UniProt P35372); assay: Radioligand binding, human μ-opioid (MOP) membranes, FlashPlate, [3H]-Naloxone; conditions: compound at 10 μM; [3H]-Naloxone, FlashPlate
T7 construct: purchased Perkin Elmer Biosignal
T7 sequence (P35372 whole entry): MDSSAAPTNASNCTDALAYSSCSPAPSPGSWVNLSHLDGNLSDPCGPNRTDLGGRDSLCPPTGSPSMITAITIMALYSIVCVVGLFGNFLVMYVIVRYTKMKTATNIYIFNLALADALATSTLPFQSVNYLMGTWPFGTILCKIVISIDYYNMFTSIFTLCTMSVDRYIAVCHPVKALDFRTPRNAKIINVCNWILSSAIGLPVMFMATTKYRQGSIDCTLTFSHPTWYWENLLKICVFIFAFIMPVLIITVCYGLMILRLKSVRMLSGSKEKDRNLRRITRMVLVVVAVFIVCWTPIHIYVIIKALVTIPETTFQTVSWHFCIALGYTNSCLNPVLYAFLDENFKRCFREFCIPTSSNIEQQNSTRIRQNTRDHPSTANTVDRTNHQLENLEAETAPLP
Method in brief: as §2

Human opioid (ORL1) = target: T8, Human opioid (ORL1) (Homo sapiens, UniProt P41146); assay: Radioligand binding, human opioid ORL1 membranes, FlashPlate, [125I]-Nociceptin; conditions: compound at 10 μM; [125I]-Nociceptin, FlashPlate
T8 construct: purchased Perkin Elmer Biosignal
T8 sequence (P41146 whole entry): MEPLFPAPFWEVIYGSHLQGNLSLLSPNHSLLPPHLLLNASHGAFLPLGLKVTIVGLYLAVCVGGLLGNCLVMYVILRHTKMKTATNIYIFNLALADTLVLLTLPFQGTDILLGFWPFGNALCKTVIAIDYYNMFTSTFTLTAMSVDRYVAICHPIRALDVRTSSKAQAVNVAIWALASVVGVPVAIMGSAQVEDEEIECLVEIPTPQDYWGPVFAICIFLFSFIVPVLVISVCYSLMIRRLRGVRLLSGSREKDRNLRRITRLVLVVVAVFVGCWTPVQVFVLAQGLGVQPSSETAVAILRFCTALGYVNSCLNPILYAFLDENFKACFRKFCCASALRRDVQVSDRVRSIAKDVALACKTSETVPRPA
Method in brief: as §2

Human Melanocortin (MC4) = target: T9, Human Melanocortin (MC4) (Homo sapiens, UniProt P32245); assay: Radioligand binding, human melanocortin MC4 membranes, FlashPlate, [125I]-NDP-αMSH; conditions: compound at 10 μM; [125I]-NDP-αMSH, FlashPlate
T9 construct: purchased Perkin Elmer Biosignal
T9 sequence (P32245 whole entry): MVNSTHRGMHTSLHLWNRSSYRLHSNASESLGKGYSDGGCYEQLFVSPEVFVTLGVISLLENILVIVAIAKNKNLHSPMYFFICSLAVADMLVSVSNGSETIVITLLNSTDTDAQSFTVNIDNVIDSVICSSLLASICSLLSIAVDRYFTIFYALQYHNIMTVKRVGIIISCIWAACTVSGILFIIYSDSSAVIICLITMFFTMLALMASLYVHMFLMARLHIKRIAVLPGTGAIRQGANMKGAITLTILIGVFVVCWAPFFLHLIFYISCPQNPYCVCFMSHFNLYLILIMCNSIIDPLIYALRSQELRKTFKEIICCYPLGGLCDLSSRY
Method in brief: as §2

Mouse urotensin (mUR2) = target: T10, Mouse urotensin (mUR2) (Mus musculus, UniProt Q8VIH9); assay: Radioligand binding, mouse urotensin mUR2 membranes, FlashPlate, [125I]-Urotensin II; conditions: compound at 10 μM; [125I]-Urotensin II, FlashPlate
T10 construct: purchased Perkin Elmer Biosignal
T10 sequence (Q8VIH9 1-385): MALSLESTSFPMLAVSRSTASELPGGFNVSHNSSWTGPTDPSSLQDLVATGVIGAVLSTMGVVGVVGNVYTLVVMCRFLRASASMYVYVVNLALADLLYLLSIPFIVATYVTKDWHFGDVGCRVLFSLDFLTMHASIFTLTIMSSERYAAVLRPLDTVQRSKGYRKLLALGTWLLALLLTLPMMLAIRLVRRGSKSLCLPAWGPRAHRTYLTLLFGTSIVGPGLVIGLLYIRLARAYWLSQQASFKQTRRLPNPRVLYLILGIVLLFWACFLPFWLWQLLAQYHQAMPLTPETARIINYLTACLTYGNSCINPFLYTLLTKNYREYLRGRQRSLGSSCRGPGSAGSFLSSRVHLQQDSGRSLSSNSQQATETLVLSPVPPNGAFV
Method in brief: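 Cloned mouse urotensin (mUR2) receptor membranes from Perkin Elmer Biosignal were immobilized in FlashPlate microplates using a proprietary coating. Each well got 19.5 μl buffer, then 0.5 μl of DMSO, reference ligand, or compound. Adding 5 μl of [125I]-Urotensin II, diluted to 5× final concentration in binding buffer, started binding. Plates were sealed with TopSeal-A and incubated 1 hour at room temperature in the dark. Wells were counted for 30 seconds each on a TopCount after a 60-second delay, and percentage inhibition was calculated.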

[2] = target: T11, Human neuropeptide Y (NPY-Y1) (Homo sapiens, UniProt P25929); assay: Radioligand binding, human neuropeptide Y NPY-Y1 membranes, FlashPlate, [125I]-PYY; conditions: compound at 10 μM; [125I]-PYY, FlashPlate
T11 construct: purchased Perkin Elmer Biosignal
T11 sequence (P25929 1-384): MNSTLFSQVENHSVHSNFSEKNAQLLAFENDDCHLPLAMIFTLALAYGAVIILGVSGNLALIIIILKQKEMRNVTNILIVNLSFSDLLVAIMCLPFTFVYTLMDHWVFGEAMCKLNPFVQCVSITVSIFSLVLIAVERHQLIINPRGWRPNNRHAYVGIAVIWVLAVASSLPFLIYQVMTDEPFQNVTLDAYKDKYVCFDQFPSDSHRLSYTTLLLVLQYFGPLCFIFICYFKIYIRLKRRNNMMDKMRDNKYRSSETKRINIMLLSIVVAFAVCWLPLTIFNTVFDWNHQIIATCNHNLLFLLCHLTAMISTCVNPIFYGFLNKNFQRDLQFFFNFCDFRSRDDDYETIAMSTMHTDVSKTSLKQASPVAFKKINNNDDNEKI
Method in brief: as §2

T1 sequence (P41145 whole entry): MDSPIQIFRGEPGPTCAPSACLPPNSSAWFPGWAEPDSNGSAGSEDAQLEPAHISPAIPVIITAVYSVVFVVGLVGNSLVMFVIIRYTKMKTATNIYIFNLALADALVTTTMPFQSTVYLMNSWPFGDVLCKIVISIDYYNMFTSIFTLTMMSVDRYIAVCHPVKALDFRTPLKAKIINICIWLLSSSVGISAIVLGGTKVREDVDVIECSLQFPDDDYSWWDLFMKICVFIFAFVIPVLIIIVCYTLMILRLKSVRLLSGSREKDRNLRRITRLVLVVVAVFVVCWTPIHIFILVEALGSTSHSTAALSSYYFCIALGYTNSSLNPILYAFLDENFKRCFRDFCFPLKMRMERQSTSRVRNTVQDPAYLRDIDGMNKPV

Row | Structure (SMILES) | A2: inhibition of radioligand binding (Human κ-Opioid (KOP)) | A5: inhibition of radioligand binding (Human melanocortin (MC5)) | A6: inhibition of radioligand binding [1] | A1: inhibition of radioligand binding (Human δ-opioid (DOP)) | A8: inhibition of radioligand binding (Human neurokinin (NK1)) | A3: inhibition of radioligand binding (Human Melanocortin (MC3)) | A7: inhibition of radioligand binding (Human μ-opioid (MOP)) | A10: inhibition of radioligand binding (Human opioid (ORL1)) | A4: inhibition of radioligand binding (Human Melanocortin (MC4)) | A11: inhibition of radioligand binding (Mouse urotensin (mUR2)) | A9: inhibition of radioligand binding [2]
1 | COCC1OC(OCc2ccc(Cl)cc2)C(NC(=O)CN)C(OCc2ccc3ccccc3c2)C1O (stereo not drawn) [compound 208] | − (“−” indicates less than 50% inhibition at 10 μM) | + (“+” indicates greater than 50% inhibition at 10 μM) | − (“−” indicates less than 50% inhibition at 10 μM) | − (“−” indicates less than 50% inhibition at 10 μM) | + (“+” indicates greater than 50% inhibition at 10 μM) | − (“−” indicates less than 50% inhibition at 10 μM) | − (“−” indicates less than 50% inhibition at 10 μM) | − (“−” indicates less than 50% inhibition at 10 μM) | − (“−” indicates less than 50% inhibition at 10 μM) | − (“−” indicates less than 50% inhibition at 10 μM) | − (“−” indicates less than 50% inhibition at 10 μM)
2 | COCC1OC(OCc2ccc(Cl)cc2)C(NC(=O)CNC(=N)N)C(OCc2ccc3ccccc3c2)C1O (stereo not drawn) [compound 209] | − (“−” indicates less than 50% inhibition at 10 μM) | + (“+” indicates greater than 50% inhibition at 10 μM) | − (“−” indicates less than 50% inhibition at 10 μM) | − (“−” indicates less than 50% inhibition at 10 μM) | + (“+” indicates greater than 50% inhibition at 10 μM) | + (“+” indicates greater than 50% inhibition at 10 μM) | − (“−” indicates less than 50% inhibition at 10 μM) | − (“−” indicates less than 50% inhibition at 10 μM) | + (“+” indicates greater than 50% inhibition at 10 μM) | − (“−” indicates less than 50% inhibition at 10 μM) | − (“−” indicates less than 50% inhibition at 10 μM)
3 | COCC1OC(OCc2ccc(Cl)cc2)C(NC(=O)CCN)C(OCc2ccc3ccccc3c2)C1O (stereo not drawn) [compound 210] | − (“−” indicates less than 50% inhibition at 10 μM) | + (“+” indicates greater than 50% inhibition at 10 μM) | − (“−” indicates less than 50% inhibition at 10 μM) | − (“−” indicates less than 50% inhibition at 10 μM) | + (“+” indicates greater than 50% inhibition at 10 μM) | − (“−” indicates less than 50% inhibition at 10 μM) | − (“−” indicates less than 50% inhibition at 10 μM) | − (“−” indicates less than 50% inhibition at 10 μM) | + (“+” indicates greater than 50% inhibition at 10 μM) | − (“−” indicates less than 50% inhibition at 10 μM) | − (“−” indicates less than 50% inhibition at 10 μM)
4 | COCC1OC(OCc2ccc(Cl)cc2)C(NC(=O)CCNC(=N)N)C(OCc2ccc3ccccc3c2)C1O (stereo not drawn) [compound 211] | + (“+” indicates greater than 50% inhibition at 10 μM) | + (“+” indicates greater than 50% inhibition at 10 μM) | + (“+” indicates greater than 50% inhibition at 10 μM) | − (“−” indicates less than 50% inhibition at 10 μM) | + (“+” indicates greater than 50% inhibition at 10 μM) | − (“−” indicates less than 50% inhibition at 10 μM) | + (“+” indicates greater than 50% inhibition at 10 μM) | − (“−” indicates less than 50% inhibition at 10 μM) | + (“+” indicates greater than 50% inhibition at 10 μM) | − (“−” indicates less than 50% inhibition at 10 μM) | − (“−” indicates less than 50% inhibition at 10 μM)
5 | COCC1OC(OCc2ccc(Cl)cc2)C(NC(=O)CCCN)C(OCc2ccc3ccccc3c2)C1O (stereo not drawn) [compound 212] | − (“−” indicates less than 50% inhibition at 10 μM) | + (“+” indicates greater than 50% inhibition at 10 μM) | − (“−” indicates less than 50% inhibition at 10 μM) | − (“−” indicates less than 50% inhibition at 10 μM) | + (“+” indicates greater than 50% inhibition at 10 μM) | − (“−” indicates less than 50% inhibition at 10 μM) | − (“−” indicates less than 50% inhibition at 10 μM) | − (“−” indicates less than 50% inhibition at 10 μM) | − (“−” indicates less than 50% inhibition at 10 μM) | − (“−” indicates less than 50% inhibition at 10 μM) | − (“−” indicates less than 50% inhibition at 10 μM)
6 | COCC1OC(OCc2ccc(Cl)cc2)C(NC(=O)CCCNC(=N)N)C(OCc2ccc3ccccc3c2)C1O (stereo not drawn) [compound 213] | + (“+” indicates greater than 50% inhibition at 10 μM) | + (“+” indicates greater than 50% inhibition at 10 μM) | + (“+” indicates greater than 50% inhibition at 10 μM) | − (“−” indicates less than 50% inhibition at 10 μM) | + (“+” indicates greater than 50% inhibition at 10 μM) | − (“−” indicates less than 50% inhibition at 10 μM) | − (“−” indicates less than 50% inhibition at 10 μM) | + (“+” indicates greater than 50% inhibition at 10 μM) | + (“+” indicates greater than 50% inhibition at 10 μM) | − (“−” indicates less than 50% inhibition at 10 μM) | − (“−” indicates less than 50% inhibition at 10 μM)
